Results on 34 compounds are retold here after ChEMBL document CHEMBL5528025, “Design, synthesis and biological evaluation of carbamate derivatives incorporating multifunctional carrier scaffolds as pseudo-irreversible cholinesterase inhibitors for the treatment of Alzheimer's disease” (Eur J Med Chem, 2024).

Data set [1] has as its target T1, Acetylcholinesterase (Homo sapiens, UniProt P22303).
Description: Inhibition of human erythrocyte AChE incubated for 10 mins
Data set [2] deals with T2, Cholinesterase (Homo sapiens, UniProt P06276).
Description: Inhibition of human serum BuChE using butyrylthiocholine iodide as substrate incubated for 10 mins followed by substrate addition and measured after 10 mins by DTNB reagent based Ellman's method
Data set [3] deals with PC-12. In words: Neuroprotective activity against H2O2-induced rat PC-12 cells assessed as protection against H2O2-induced apoptosis by measuring live cells at 10 uM pretreated for 1 hr followed by H2O2 addition and measured after 24 hrs by Annexin V-FITC/PI staining based flow cytometry analysis (reference value: 63.2%). The format is functional. Particulars: time 25 hrs. In general terms: A flow cytometer gives signals particle by particle.

For data set [4], the system named is PC-12. Description: Neuroprotective activity against H2O2-induced rat PC-12 cells assessed as protection against H2O2-induced apoptosis by measuring late apoptotic cells at 10 uM pretreated for 1 hr followed by H2O2 addition and measured after 24 hrs by Annexin V-FITC/PI staining based flow cytometry analysis (reference value: 7.97%). It counts as functional. Particulars: time 25 hrs.

The test system of data set [5] is PC-12. Description: Inhibition of H2O2 induced ROS production in rat PC-12 cells assessed as reduction in intracellular ROS level at 10 uM pretreated for 1 hr followed by H2O2 stimulation and measured after 24 hrs by confocal microscopic analysis. To be noted: time 25.0 hrs. It counts as functional, cell-based.
Data set [6] is described as follows: Cytotoxicity against rat PC-12 cells assessed as cell viability at 10 uM incubated for 24 hrs by CCK-8 assay relative to control. Particulars: read-out: Activity. The format is toxicity, cell-based. On the technique in general: Formazan colour is commonly taken as a measure of viable cells.
Data set [7] has as its system BV-2. Description: Cytotoxicity against mouse BV-2 cells assessed as reduction in cell viability at 5 uM incubated for 24 hrs by CCK-8 assay. To be noted: bv-2, 24 h. The format is toxicity, cell-based.
For data set [8], the system named is BV-2. In words: Antineuroinflammatory activity in LPS-induced mouse BV-2 cells assessed as increase in IL-4 level at 1.25 to 5 uM incubated for 24 hrs by ELISA. It counts as functional, cell-based. To be noted: dose 1.25-5 µM.
Data set [9] deals with T1, Acetylcholinesterase. In words: Pseudo-irreversible inhibition of human erythrocyte AChE at 4 times IC50 preincubated for 20 mins followed by dialysis and measured after 12 hrs. The format is cell-based.
Data set [10] has as its target T2, Cholinesterase. Description: Pseudo-irreversible inhibition of human serum BuChE using butyrylthiocholine iodide as substrate at 4 times IC50 preincubated for 20 mins followed by dialysis and measured after 12 hrs by DTNB reagent based Ellman's method. For orientation: Ellman's reagent forms a yellow product with free thiols.

The source made the active and inactive calls. The rule behind the calls is not given here. Where only a bound is given, the exact number is not on record here.

T2 sequence (P06276 whole entry): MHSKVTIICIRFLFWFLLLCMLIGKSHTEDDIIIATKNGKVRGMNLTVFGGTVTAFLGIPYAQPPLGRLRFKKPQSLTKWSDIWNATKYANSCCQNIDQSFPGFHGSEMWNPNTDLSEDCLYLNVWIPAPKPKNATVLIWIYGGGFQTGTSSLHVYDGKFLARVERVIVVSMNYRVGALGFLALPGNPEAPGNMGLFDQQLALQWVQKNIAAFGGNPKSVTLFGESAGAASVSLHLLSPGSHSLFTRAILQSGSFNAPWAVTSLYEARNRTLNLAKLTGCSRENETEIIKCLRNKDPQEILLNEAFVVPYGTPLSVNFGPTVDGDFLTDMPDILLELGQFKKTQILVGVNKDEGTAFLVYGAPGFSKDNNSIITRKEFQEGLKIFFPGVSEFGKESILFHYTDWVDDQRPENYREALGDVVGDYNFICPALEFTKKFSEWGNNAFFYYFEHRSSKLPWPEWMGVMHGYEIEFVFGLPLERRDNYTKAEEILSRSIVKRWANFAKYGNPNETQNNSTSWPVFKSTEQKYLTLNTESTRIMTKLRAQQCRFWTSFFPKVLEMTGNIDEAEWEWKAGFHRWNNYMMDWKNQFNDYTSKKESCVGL
T1 sequence (P22303 whole entry): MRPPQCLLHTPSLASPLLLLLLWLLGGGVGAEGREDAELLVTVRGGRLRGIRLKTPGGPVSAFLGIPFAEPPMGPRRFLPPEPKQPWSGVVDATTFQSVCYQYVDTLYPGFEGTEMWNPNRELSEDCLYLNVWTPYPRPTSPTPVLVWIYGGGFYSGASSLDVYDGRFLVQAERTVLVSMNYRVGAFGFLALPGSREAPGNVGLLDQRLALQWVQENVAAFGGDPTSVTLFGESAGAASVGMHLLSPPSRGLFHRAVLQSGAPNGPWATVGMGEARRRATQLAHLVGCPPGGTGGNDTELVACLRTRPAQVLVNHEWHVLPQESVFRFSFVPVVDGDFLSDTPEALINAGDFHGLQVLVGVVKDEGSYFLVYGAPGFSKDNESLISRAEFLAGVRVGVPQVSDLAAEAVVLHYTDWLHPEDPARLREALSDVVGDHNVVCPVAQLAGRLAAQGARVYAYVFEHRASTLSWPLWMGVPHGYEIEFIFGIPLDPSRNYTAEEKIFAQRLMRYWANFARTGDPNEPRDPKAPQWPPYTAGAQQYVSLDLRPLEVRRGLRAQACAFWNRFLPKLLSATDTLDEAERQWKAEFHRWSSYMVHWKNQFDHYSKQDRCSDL

The IC50 is the concentration that inhibits the measured activity by half. As for `O=C(NCCCCCCNc1c2c(nc3cc(F)ccc13)CCCC2)Oc1ccc2cc[nH]c2c1`, the half-maximal inhibitory concentration (IC50) on Acetylcholinesterase [1] is 297 nM; against Cholinesterase [2] it was 43.1 nM.
The matching figures for `O=C(NCCCCCCNc1c2c(nc3cc(Cl)ccc13)CCCC2)Oc1ccc(-c2cc3cccnc3[nH]2)cc1`: 64.7 nM and 280 nM.
Take `Oc1ccc(/C=C/c2cc(O)cc(O)c2)cc1` [RESVERATROL]: the Activity in the data set with PC-12 [3] was determined as 87.3%; in the data set on PC-12 [4], 1.4%.
For the compound `C[C@@H](c1cccc(OC(=O)NCCCCCCNc2c3c(nc4ccccc24)CCCC3)c1)N(C)C`, the IC50 at Acetylcholinesterase [1] amounted to 119 nM; at Cholinesterase [2], 14.8 nM.
For the compound `O=C(NCCNc1c2c(nc3ccccc13)CCCC2)Oc1ccc2cc[nH]c2c1`, the results for the IC50 against Acetylcholinesterase [1] and on Cholinesterase [2] were 1250 nM and 0.37 nM, respectively.
Regarding `O=C(NCCCCCNc1c2c(nc3cc(Br)ccc13)CCCC2)Oc1ccc2cc[nH]c2c1`, the values for the IC50 at Acetylcholinesterase [1] and on Cholinesterase [2] were 317 nM and 43.1 nM, respectively.
The corresponding values for `C[C@@H](c1cccc(OC(=O)NCCNc2c3c(nc4ccccc24)CCCC3)c1)N(C)C` are 252 nM and over 10000 nM.
Turning to `O=C(NCCCCCNc1c2c(nc3cc(F)ccc13)CCCC2)Oc1ccc(-c2cc3cccnc3[nH]2)cc1`, the IC50 against Acetylcholinesterase [1] was determined as 152 nM; at Cholinesterase [2] it was 334 nM.
Take `C[C@@H](c1cccc(OC(=O)NCCCCCNc2c3c(nc4cc(Br)ccc24)CCCC3)c1)N(C)C`: the IC50 at Acetylcholinesterase [1] is 47.7 nM; against Cholinesterase [2], 21.6 nM.
In the case of `O=C(NCCCCCCNc1c2c(nc3ccccc13)CCCC2)Oc1ccc(-c2cc3cccnc3[nH]2)cc1`, the values for the IC50 at Acetylcholinesterase [1] and at Cholinesterase [2] were 21.3 nM and 18.3 nM, respectively.
As to `C[C@@H](c1cccc(OC(=O)NCCCNc2c3c(nc4ccccc24)CCCC3)c1)N(C)C`, the IC50 at Acetylcholinesterase [1] came to 385 nM; against Cholinesterase [2], 23.2 nM.
The matching figures for `C[C@@H](c1cccc(OC(=O)NCCCCCNc2c3c(nc4cc(Cl)ccc24)CCCC3)c1)N(C)C`: 8.28 nM and 26.9 nM.
The matching figures for `O=C(NCCNc1c2c(nc3ccccc13)CCCC2)Oc1ccc(-c2cc3cccnc3[nH]2)cc1`: over 10000 nM and 52.2 nM.
As for `O=C(NCCCCNc1c2c(nc3ccccc13)CCCC2)Oc1ccc(-c2cc3cccnc3[nH]2)cc1`, the inhibition entry with PC-12 [5] is “Active”. Also, the viability at 24 h, 10 µM in data set [6] was over 90%. Further, the concentration for half-maximal inhibition (IC50) is 205 nM against Acetylcholinesterase [1] and 20.5 nM on Cholinesterase [2]. Besides, the Activity was 77.2% in the data set with PC-12 [3], 2.92% with PC-12 [4] and “Non-Toxic” in the data set with BV-2 [7]. Moreover, the result with BV-2 [8] was Active.
With `C[C@@H](c1cccc(OC(=O)NCCCCNc2c3c(nc4ccccc24)CCCC3)c1)N(C)C`, the figures for the IC50 at Acetylcholinesterase [1] and on Cholinesterase [2] were 292 nM and 43.5 nM, respectively.
For the compound `CCN(C)C(=O)Oc1cccc([C@H](C)N(C)C)c1`, the inhibition entry at Acetylcholinesterase [9] and at Cholinesterase [10] was “Active” throughout.
For `O=C(NCCCCCNc1c2c(nc3cc(F)ccc13)CCCC2)Oc1ccc2cc[nH]c2c1`, the IC50 was determined as 273 nM at Acetylcholinesterase [1] and 40 nM on Cholinesterase [2].
The corresponding values for `O=C(NCCCCCNc1c2c(nc3cc(Cl)ccc13)CCCC2)Oc1ccc(-c2cc3cccnc3[nH]2)cc1` are 23.1 nM and 1660 nM.
In the case of `C[C@@H](c1cccc(OC(=O)NCCCCCCNc2c3c(nc4cc(Cl)ccc24)CCCC3)c1)N(C)C`, the half-maximal inhibitory concentration (IC50) on Acetylcholinesterase [1] turned out to be 25.6 nM; on Cholinesterase [2], 92.8 nM.
On to `O=C(NCCCCCNc1c2c(nc3ccccc13)CCCC2)Oc1ccc(-c2cc3cccnc3[nH]2)cc1`, for which the IC50 was found to be 153 nM on Acetylcholinesterase [1] and 21.2 nM on Cholinesterase [2].
The corresponding values for `C[C@@H](c1cccc(OC(=O)NCCCCCCNc2c3c(nc4cc(F)ccc24)CCCC3)c1)N(C)C` are 42.2 nM and 11 nM.
As for `O=C(NCCCCCNc1c2c(nc3cc(Cl)ccc13)CCCC2)Oc1ccc2cc[nH]c2c1`, the viability at 24 h, 10 µM in data set [6] is over 90%. Moreover, the values for the IC50 on Acetylcholinesterase [1] and against Cholinesterase [2] were 248 nM and 48.6 nM, respectively. The Activity result in the data set on BV-2 [7] was “Toxic”.
Regarding `O=C(NCCCNc1c2c(nc3ccccc13)CCCC2)Oc1ccc2cc[nH]c2c1`, the IC50 at Acetylcholinesterase [1] was 552 nM; at Cholinesterase [2] it was 7.23 nM.
The matching figures for `O=C(NCCCCCNc1c2c(nc3cc(Br)ccc13)CCCC2)Oc1ccc(-c2cc3cccnc3[nH]2)cc1`: 59.1 nM and 791 nM.
The matching figures for `O=C(NCCCCCCNc1c2c(nc3cc(Br)ccc13)CCCC2)Oc1ccc(-c2cc3cccnc3[nH]2)cc1`: 55 nM and 556 nM.
Turning to `O=C(NCCCCCNc1c2c(nc3ccccc13)CCCC2)Oc1ccc2cc[nH]c2c1`, the IC50 at Acetylcholinesterase [1] is 421 nM; against Cholinesterase [2], 23.3 nM.
The matching figures for `C[C@@H](c1cccc(OC(=O)NCCCCCNc2c3c(nc4cc(F)ccc24)CCCC3)c1)N(C)C`: 37.8 nM and 137 nM.
With `C[C@@H](c1cccc(OC(=O)NCCCCCNc2c3c(nc4ccccc24)CCCC3)c1)N(C)C`, the IC50 against Acetylcholinesterase [1] was 117 nM; at Cholinesterase [2] it was 12 nM.
Turning to `O=C(NCCCNc1c2c(nc3ccccc13)CCCC2)Oc1ccc(-c2cc3cccnc3[nH]2)cc1`, the viability at 24 h, 10 µM in [6] was over 90%. Besides, the IC50 at Acetylcholinesterase [1] came out at 233 nM; against Cholinesterase [2], 16.1 nM.
`O=C(NCCCCCCNc1c2c(nc3ccccc13)CCCC2)Oc1ccc2cc[nH]c2c1`: the IC50 against Acetylcholinesterase [1] is 382 nM; against Cholinesterase [2], 76.5 nM.
The matching figures for `O=C(NCCCCCCNc1c2c(nc3cc(Cl)ccc13)CCCC2)Oc1ccc2cc[nH]c2c1`: 153 nM and 64.4 nM.
As for `C[C@@H](c1cccc(OC(=O)NCCCCCCNc2c3c(nc4cc(Br)ccc24)CCCC3)c1)N(C)C`, the IC50 came out at 56 nM against Acetylcholinesterase [1] and 9.65 nM on Cholinesterase [2].
As to `O=C(NCCCCCCNc1c2c(nc3cc(Br)ccc13)CCCC2)Oc1ccc2cc[nH]c2c1`, the IC50 was found to be 113 nM against Acetylcholinesterase [1] and 57.9 nM at Cholinesterase [2].
The corresponding values for `O=C(NCCCCNc1c2c(nc3ccccc13)CCCC2)Oc1ccc2cc[nH]c2c1` are 510 nM and 1.35 nM.
